Assay results reported in patent US20220054412A1, “TOPICAL FORMULATION AND METHODS FOR […]” (priority 2020, published 2022).

Assay: Use of the topical neuropathy relief formulation by patients (example cases)
Assay type: in vivo, human
Conditions: Patient, severe debilitating neuropathy for six years; medications tried before the formulation; high doses of gabapentin
Text: The neuropathy relief formulation is applied in an amount sufficient to cover the affected area of clean dry skin. The neuropathy relief formulation is rubbed into the affected area until no cream remains visible on the surface. The formulation can be applied one, two, three or four times per day as needed for relief of symptoms.
The following example cases are from a few of the individuals who have been successfully treated with the claimed formulation

Compound | outcome of earlier medications for neuropathy
CCC(=O)C(CC(C)N(C)C)(c1ccccc1)c1ccccc1 (centres unmarked) [methadone] | unsuccessful
NCC1(CC(=O)O)CCCCC1 [gabapentin] | unsuccessful
